The source of these data is patent US9096515B2, “Methods of using cycloalkylmethylamine derivatives” (Reviva Pharmaceuticals, Inc., priority 2010, dated 2015).

For data set [1] the following is noted: active metabolites of sibutramine; background statement; cited from earlier work.
Data set [2] has as its target human recombinant transporter protein dopamine (DAT) (Homo sapiens (Human), UniProt Q01959). The data set is described as follows: radioligand binding assay, dopamine transporter. The method, then:
(§1) The monoamine transporters inhibitory activities of selected compounds cycloalkylmethylamine derivatives comprising Formula (I) are reported herein. The compounds were evaluated using well established radioligand binding assays protocols (Galli, A. et al., J. Exp. Biol. 1995, 198, 2197-2212; Giros, B. et al., Trends Pharmcol. Sci. 1993, 14, 43-49; Gu, H. et al., J. Biol. Chem. 1994, 269(10), 7124-7130; Shearman, L. P. et al, Am. J. Physiol., 1998, 275(6 Pt 1), C1621-1629; Wolf, W. A. et al., J. Biol. Chem. 1992, 267(29), 20820-20825). The human recombinant transporter proteins dopamine (DAT), norepinephrine (NET) and serotonin (SERT) were selected for the in vitro assays. The radioligand binding assays were carried out at 11 different test concentrations […] to 1 μM.
(§2) The assays were carried out in duplicates and the quantitative data are reported as Ki in the TABLE 1.

Data set [3] deals with human recombinant transporter protein norepinephrine (NET) (Homo sapiens (Human), UniProt P23975). Briefly: radioligand binding assay, norepinephrine transporter. Here is the method:
as §1, §2

Data set [4] deals with human recombinant transporter protein serotonin (SERT) (Homo sapiens (Human), UniProt P31645). Briefly: radioligand binding assay, serotonin transporter. The method, then:
as §1, §2

The mark [5] stands for this setting: human recombinant SERT, 11 test concentrations 0.1 nm to 1 μM, duplicates, read-out: SERT Ki.
The mark [6] stands for this setting: human recombinant DAT, 11 test concentrations 0.1 nm to 1 μM, duplicates, read-out: DAT Ki.
The mark [7] stands for this setting: human recombinant NET, 11 test concentrations 0.1 nm to 1 μM, duplicates, read-out: NET Ki.

Read-outs that look alike come from different tables or passages of the source.

Chain of human recombinant transporter protein norepinephrine (NET) (P23975 whole entry): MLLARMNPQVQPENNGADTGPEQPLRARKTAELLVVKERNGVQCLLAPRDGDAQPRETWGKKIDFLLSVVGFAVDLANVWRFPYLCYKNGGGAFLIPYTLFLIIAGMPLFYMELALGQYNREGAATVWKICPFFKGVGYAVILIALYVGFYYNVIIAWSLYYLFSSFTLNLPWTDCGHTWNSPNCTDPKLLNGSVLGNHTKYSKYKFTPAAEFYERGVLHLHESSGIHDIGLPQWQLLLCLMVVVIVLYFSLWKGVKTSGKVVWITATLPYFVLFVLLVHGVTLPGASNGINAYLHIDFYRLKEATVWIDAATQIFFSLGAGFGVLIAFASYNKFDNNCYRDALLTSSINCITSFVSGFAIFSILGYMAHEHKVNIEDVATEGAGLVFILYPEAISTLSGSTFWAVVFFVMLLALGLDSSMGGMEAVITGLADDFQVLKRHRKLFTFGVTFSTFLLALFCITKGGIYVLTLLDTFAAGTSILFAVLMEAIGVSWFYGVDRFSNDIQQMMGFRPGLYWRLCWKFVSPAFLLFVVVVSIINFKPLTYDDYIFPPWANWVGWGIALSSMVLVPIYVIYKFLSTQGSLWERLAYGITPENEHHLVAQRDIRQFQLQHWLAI
Chain of human recombinant transporter protein dopamine (DAT) (Q01959 whole entry): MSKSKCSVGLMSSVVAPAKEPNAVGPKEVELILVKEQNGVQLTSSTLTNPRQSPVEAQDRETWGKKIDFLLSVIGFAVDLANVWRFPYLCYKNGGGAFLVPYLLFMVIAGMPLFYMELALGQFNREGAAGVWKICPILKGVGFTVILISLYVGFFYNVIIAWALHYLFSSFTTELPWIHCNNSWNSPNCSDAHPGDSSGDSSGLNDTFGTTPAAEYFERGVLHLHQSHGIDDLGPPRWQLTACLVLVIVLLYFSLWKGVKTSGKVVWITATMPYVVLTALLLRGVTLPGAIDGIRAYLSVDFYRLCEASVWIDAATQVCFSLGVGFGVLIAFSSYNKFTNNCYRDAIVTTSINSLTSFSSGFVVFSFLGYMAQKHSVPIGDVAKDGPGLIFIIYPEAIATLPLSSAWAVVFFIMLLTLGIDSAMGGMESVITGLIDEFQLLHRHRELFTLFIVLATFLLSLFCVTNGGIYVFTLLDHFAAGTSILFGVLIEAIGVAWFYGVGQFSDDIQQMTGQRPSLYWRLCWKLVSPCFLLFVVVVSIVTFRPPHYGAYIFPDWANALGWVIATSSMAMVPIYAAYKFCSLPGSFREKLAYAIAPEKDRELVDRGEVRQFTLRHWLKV

Take `CNC(CC(C)C)C1(c2ccc(Cl)cc2)CCC1` (centres unmarked) [Compound M1]: the elimination half-life in data set [1] was 14 h.
In general, Ki refers to the equilibrium dissociation constant of an inhibitor or competing ligand from its target. Take `CCCC(=O)NCCNC(CC(C)C)C1(c2ccc(Cl)c(Cl)c2)CCC1` (centres unmarked) [Compound 31a, N-(2-((1-(1-(3,4-Dichlorophenyl)cyclobutyl)-3-methylbutyl)amino)ethyl)butyramide]: the Ki was 52.7 nM in data set [2], 77.7 nM in data set [3] and 27.8 nM in data set [4] (setting [5]).
Regarding `CCCC(=O)NCCNC(CC(C)C)C1(c2ccc(OCC)cc2)CCC1` (centres unmarked) [Compound 31b, N-(2-((1-(1-(4-Ethoxyphenyl)cyclobutyl)-3-methylbutyl)amino)ethyl)butyramide], the Ki in data set [2] (setting [6]) came to 251 nM; in data set [3], 4730 nM; in data set [4] it was 25 nM.
As to `CCOc1ccc(C2(CC(C)CCNCCCC(N)=O)CCC2)cc1` (racemic) [33b -Racemic], the inhibition constant Ki in data set [2] (setting [6]) is 472 nM; in data set [3] (setting [7]), above 10000 nM; in data set [4] (setting [5]), 5.49 nM.
In the case of `CCOC(=O)NCCNC(CC(C)C)C1(c2ccc(Cl)c(Cl)c2)CCC1` (centres unmarked) [Compound 21a, Ethyl (2-((1-(1-(3,4-dichlorophenyl)cyclobutyl)-3-methylbutyl)amino)ethyl)carbamate], the Ki was 38.4 nM in data set [2], 13.4 nM in data set [3] and 1 nM in data set [4] (setting [5]).
For `C[C@@H](CCNCCCC(N)=O)CC1(c2ccc(Cl)c(Cl)c2)CCC1` (single isomer, unassigned) [33a -(R)-Isomer], the Ki came out at 0.91 nM in data set [2] (setting [6]), 30.3 nM in data set [3] (setting [7]) and 2.3 nM in data set [4] (setting [5]).
`CCOc1ccc(C2(C[C@@H](C)CCNCCCC(N)=O)CCC2)cc1` (single isomer, unassigned) [33b -(R)-Isomer]: the figures for the inhibitory constant (Ki) in data set [2] (setting [6]), in data set [3] (setting [7]) and in data set [4] (setting [5]) were 130 nM, 6520 nM and 2.79 nM, respectively.
On the same counts, the results for `CC(CCNCCCC(N)=O)CC1(c2ccc(Cl)c(Cl)c2)CCC1` (racemic) [33a -Racemic] are 1.5 nM, 50.1 nM and 8.1 nM.
For the compound `CC(C)CC(N)C1(c2ccc(Cl)cc2)CCC1` (centres unmarked) [Compound M2], the elimination half-life in data set [1] is 16 h.
For `CCOc1ccc(C2(C[C@H](C)CCNCCCC(N)=O)CCC2)cc1` (single isomer, unassigned) [33b -(S)-Isomer], the results for the Ki in data set [2] (setting [6]), in data set [3] (setting [7]) and in data set [4] (setting [5]) were 4030 nM, 1090 nM and 329 nM, respectively.
As for `CCOc1ccc(C2(C(CC(C)C)NCCOC(=O)CC)CCC2)cc1` (centres unmarked) [Compound 12u, 2-((1-(1-(4-Ethoxyphenyl)cyclobutyl)-3-methylbutyl)amino)ethyl propionate], the inhibition constant (Ki) in data set [2] (setting [6]) amounted to 80.4 nM; in data set [3] (setting [7]), 2340 nM; in data set [4] (setting [5]) it was 5.7 nM.
As to `CCOC(=O)NCCNC(CC(C)C)C1(c2ccc(OCC)cc2)CCC1` (centres unmarked) [Compound 21b, Ethyl (2-((1-(1-(4-ethoxyphenyl)cyclobutyl)-3-methylbutyl)amino)ethyl)carbamate], the Ki in data set [2] is 159 nM; in data set [3], 1920 nM; in data set [4], 2 nM.
On to “2-((1-(1-(3,4-Dichlorophenyl)cyclobutyl)-3-methylbutyl)amino)ethyl propionate [Compound 12q]”, for which the inhibition constant (Ki) in data set [2] (setting [6]) was 7.2 nM; in data set [3] (setting [7]) it was 38.2 nM; in data set [4] (setting [5]) it was 10.6 nM.
